Numbered stars: 1 amine (or outer) side, 2 acyl side, 3 side chain; on linkers, the order of the positions; unused ones are H or OH. Bridge positions count the residues as written; N and C are the ends. Square brackets hold non-standard residues; d marks the D form. Peptide text beside a SMILES is read from it. * marks the point of attachment. ξ: configuration not given here. Orn(4R-OH,5R-OCH2CH2NMe3+) = C[N+](C)(C)CCO[C@@H](N[*:3])[C@H](O)C[C@H](N[*:1])C(=O)[*:2]; pTerphenylCO(4''-OnC5H11) = CCCCCOc1ccc(-c2ccc(-c3ccc(C(=O)*)cc3)cc2)cc1; hTyr(3S-OH,4S-OH) = N[C@H](C(=O)O)[C@H](O)[C@@H](O)c1ccc(O)cc1; X1 = C[C@H]1CN([*:1])C(C(=O)[*:2])C1O; Hyp = O=C(O)[C@@H]1C[C@@H](O)CN1; ξT = CC(O)C(N)C(=O)O
Columns and labels:
[1] = test system: C. albicans strain 529L; assay: Rat model of vulvovaginal candidiasis, vaginal lavage and tissue burden; assay type: in vivo, Candida albicans
Protocol: Animal Strain. Wistar rats were supplied by Harlan Laboratories UK and were specific pathogen free. Rats weighed […] at the time of surgery. Ovariectomies were performed. Rats were allowed 4-7 days recovery before transportation to the facility where the experiment was to be performed. Following arrival, rats were allowed at least 4 days acclimatization before start of the experiment. Rats weighed 100-120 g at the time of ovariectomy and were about 300 g at start of the experiment.
Pre-conditioning. Female Wistar rats underwent ovariectomy at least 10 days prior to the study commencing. They were further pre-conditioned by treatment with 5 mg/kg 17-β-estradiol administered subcutaneously (SC) every other day on Days −7, −5, −3 and −1 prior to infection with C. albicans strain 529. Estradiol treatment continued every other day throughout the study to 7 days post-infection.
Yeast Isolate. Candida albicans strain 529L was used in this chronic rat vaginal infection model.
Infection. Yeast strains were inoculated aerobically onto Sabouraud dextrose agar media (SAB) containing 0.05 mg/mL chloramphenicol and incubated at 30° C. for 48-72 h. 18-24 h prior to infection, Yeast Peptone Dextrose (YPD) broths were inoculated with 2-3 isolated colonies from agar plates and incubated overnight (37° C. on an orbital shaker). Broths containing C. albicans strain 529L were washed 3 times with sterile phosphate buffered saline (PBS) before dilution to the correct inoculum for infection. Cell counts were determined using a haemocytometer and confirmed by quantitative culture on Sabouraud dextrose agar.
Rats were infected with 0.1 mL by intravaginal administration under inhaled isoflurane anaesthesia using about 9.8×10^5 CFU/mL (9.8×10^4 CFU/Rat) C. albicans strain 529L
Treatment. […] The fluconazole treatment also started at 24 h post infection but was administered by the PO route at the dose volume and frequency shown in Table 7. The study design is further outlined in FIG. 19.
Reduction in weight and general loss of condition due to estradiol treatment are also typical in this rat model. Colonization with C. albicans was determined by quantitative culture of daily vaginal lavage samples. Rats were euthanized 9 days post infection and C. albicans determined by quantitative culture of vaginal tissue (including uterine horns).
Lavage samples were obtained on Days 1 (pre-treatment), 2, 3, 5, 7, and 9 days post infection by flushing rat vaginas 4 times with 0.1 mL pre-warmed sterile PBS. Following euthanasia, vaginal tissue including uterine horns was removed prior to weighing. Tissues were homogenized in 2 mL sterile PBS using a bead-beater. Vaginal wash and tissue homogenates were diluted appropriately then quantitatively cultured on to Sabouraud dextrose agar containing 0.05 mg/mL chloramphenicol and incubated at 37° C. for up to 72 h before being counted.
Statistical analysis. Data were analyzed using StatsDirect software (version 2.7.8) using the non-parametric Kruskal-Wallis test and if this was statistically significant all pairwise comparisons were analyzed (Conover-Inman).

[2] = Previous toxicology studies by the IV route; assay type: in vivo, cynomolgus monkeys; conditions: up to at least 30 mg/kg
[3] = test system: C. albicans; assay: In vitro susceptibility testing (CLSI M27-A3); assay type: cell-based; conditions: Candida albicans, 24 h
Protocol: Strains. Ten clinical Candida strains were used for the in vivo treatment studies, including four C. albicans, three C. glabrata, and three C. parapsilosis strains (Table 18). This group was selected to encompass phenotypic variability in susceptibility to triazoles and echinocandins and based on similar fitness in the animal model as defined by the amount of growth in control animals over 24 h. The organisms were maintained, grown, and quantified on Sabouraud's dextrose agar (SDA) plates.
In vitro susceptibility testing. All isolates were tested in accordance with the standards in CLSI document M27-A3. The MICs were determined visually after 24 h of incubation as the lowest concentration of drug that causes a significant diminution (≥50%) of growth compared to controls. MICs were determined on three separate occasions in duplicate.

[4] = lavage Day 6 post treatment (Day 7 post infection), 5 mg/kg SC dosed once
[5] = lavage Day 6 post treatment (Day 7 post infection), 5 mg/kg SC dosed twice
[6] = lavage Day 6 post treatment (Day 7 post infection), 10 mg/kg SC dosed once
[7] = lavage Day 8 post treatment (Day 9 post infection), 5 mg/kg SC dosed once
[8] = lavage Day 8 post treatment (Day 9 post infection), 5 mg/kg SC dosed twice
[9] = lavage Day 8 post treatment (Day 9 post infection), 10 mg/kg SC dosed once
[10] = terminal vaginal tissue (vagina, uterus, uterine horns) Day +9 post infection, 5 mg/kg SC dosed once
[11] = terminal vaginal tissue Day +9 post infection, 5 mg/kg SC dosed twice
[12] = terminal vaginal tissue Day +9 post infection, 10 mg/kg SC dosed once
[13] = vaginal lavage Day 1 post infection, pre-treatment, 5 mg/kg SC dosed once group
[14] = vaginal lavage Day 1 post infection, pre-treatment, 5 mg/kg SC dosed twice group
[15] = vaginal lavage Day 1 post infection, pre-treatment, 10 mg/kg SC dosed once group

## CCCCCOc1ccc(-c2ccc(-c3ccc(C(=O)N[C@H]4C[C@@H](O)[C@@H](OCC[N+](C)(C)C)NC(=O)C5C(O)[C@@H](C)CN5C(=O)[C@H]([C@@H](C)O)NC(=O)[C@H]([C@H](O)[C@@H](O)c5ccc(O)cc5)NC(=O)[C@@H]5C[C@@H](O)CN5C(=O)C(C(C)O)NC4=O)cc3)cc2)cc1 (stereo partly drawn) [CD101] ({pTerphenylCO(4''-OnC5H11)}-[Orn(4R-OH,5R-OCH2CH2NMe3+)][ξT][Hyp][hTyr(3S-OH,4S-OH)]T[X1]; lactam 1-C)
[1]; [4]
  Group Geometric mean: 4.56 × 10^3 CFU/mL
  Log Group Geometric mean: 3.66 CFU/mL
  Log reduction from vehicle control: 0.52 CFU/mL
[1]; [5]
  Group Geometric mean: 6.47 × 10^2 CFU/mL
  Log Group Geometric mean: 2.81 CFU/mL
  Log reduction from vehicle control: 1.37 CFU/mL
[1]; [6]
  Group Geometric mean: 2.59 CFU/mL
  Log Group Geometric mean: 0.41 CFU/mL
  Log reduction from vehicle control: 3.77 CFU/mL
[1]; [7]
  Group Geometric mean: 4.58 × 10^3 CFU/mL
  Log Group Geometric mean: 3.66 CFU/mL
  Log reduction from vehicle control: 0.64 CFU/mL
[1]; [8]
  Group Geometric mean: 1.28 × 10^3 CFU/mL
  Log Group Geometric mean: 3.11 CFU/mL
  Log reduction from vehicle control: 1.19 CFU/mL
[1]; [9]
  Group Geometric mean: 2.75 CFU/mL
  Log Group Geometric mean: 0.44 CFU/mL
  Log reduction from vehicle control: 3.86 CFU/mL
[1]; [10]
  Group Geometric mean: 1.37 × 10^5 CFU/g
  Log Group Geometric mean: 5.14 CFU/g
  Log reduction from vehicle control: 0.36 CFU/g
[1]; [11]
  Group Geometric mean: 4.00 × 10^4 CFU/g
  Log Group Geometric mean: 4.60 CFU/g
  Log reduction from vehicle control: 0.89 CFU/g
[1]; [12]
  Group Geometric mean: 5.52 CFU/g
  Log Group Geometric mean: 0.74 CFU/g
  Log reduction from vehicle control: 4.75 CFU/g
[1]; [13]
  Group Geometric mean: 9.11 × 10^2 CFU/mL
  Log Group Geometric mean: 2.96 CFU/mL
  Log reduction from vehicle control: −0.52 CFU/mL
[1]; [14]
  Group Geometric mean: 1.83 × 10^3 CFU/mL
  Log Group Geometric mean: 3.26 CFU/mL
  Log reduction from vehicle control: −0.83 CFU/mL
[1]; [15]
  Group Geometric mean: 3.68 × 10^2 CFU/mL
  Log Group Geometric mean: 2.57 CFU/mL
  Log reduction from vehicle control: −0.13 CFU/mL
[2]
  safety and tolerability: safe and well tolerated
[3]; strain 98-17
  MIC: 0.06 µg/mL
[3]; strain 98-210
  MIC: 0.03 µg/mL
[3]; strain 580
  MIC: 0.06 µg/mL
[3]; strain K-1
  MIC: 0.06 µg/mL
